Assay results from patent US9101565B2, “Dissolution stability of calcium carbonate tablets” (TAKEDA NYCOMED AS, priority 2008, dated 2015).

Test: Test of compactability of different sugar alcohols (crushing strength vs compression force)
Type: physicochemical
Conditions: FIG. 1; for compactability (slope of the correlation between compression force and crushing strength): pure sugar alcohol compacts, single punch press, punch and die lubricated with magnesium stearate
Method: Tablets comprising either Neosorb P100T, Sorbidex P1666BO, Isomalt ST-PF, Maltisorb P90, Mannitol 60 or Xylitol CM50 were compressed on an instrumented Fette Exacta 1/F single punch tablet press, only maximum compression force on the upper punch was recorded.
Before the compression of each tablet the punch tips and the die bore were lubricated with a 5% suspension of magnesium stearate in acetone. The acetone was allowed to evaporate before compression of the tablet.
The sugar alcohol was weighed, transferred to the die bore and then compressed, see table 1. Immediately after ejection the tablet was tested for crushing strength.
From FIG. 1 (each point is the average of three measurements) it is seen that the assumption was correct. Therefore, test of particle size was not repeated for the other sugar alcohols.
The tabletting machine used is equipped with data acquisition that as a minimum measure the compaction force applied. However, any tabletting machine may be used provided the compaction force applied can be measured.
The crushing strength has been measured by use of a Schleuniger-2E from the company Dr. Schleuniger and determined as the mean of measuring the crushing strength for 10 individual tablets.

Row | Molecule | compactability (slope of the correlation between compression force and crushing strength) | tablet crushing strength, dependence on particle size (two mean particle sizes, 38 μm and 110 μm)
1 | OC[C@@H](O)[C@@H](O[C@H]1O[C@H](CO)[C@@H](O)[C@H](O)[C@H]1O)[C@H](O)[C@@H](O)CO [Maltitol] | very poor compactability | –
2 | OC[C@@H](O)[C@@H](O)[C@H](O)[C@H](O)CO [mannitol, Mannitol] | very poor compactability | –
3 | OC[C@@H](O)[C@@H](O)[C@H](O)[C@@H](O)CO [sorbitol, Sorbitol] | best compactability | independent of particle size
4 | OC[C@@H](O)[C@H](O)[C@@H](O)CO [xylitol, Xylitol] | very poor compactability | –
5 | Isomalt | Sorbitol is followed by isomalt | –
